Among the data in US5530126A, “Process for the preparation of substituted 6-(pyrazol-3yl)-1,4-benzoxazin-3-ones” (Monsanto Company, priority 1994, dated 1996) are inhibition values, retold here.

What is called inhibition is the relative decrease from the control value, in per cent.

Holding throughout (type): in vivo
Assay [1] relates to Indian Mustard. Kind of assay: Pre-emergence herbicide test. Particulars: Brassica juncea, read-out: % plant inhibition (Inmu); for inhibition at 1120 g/ha: 1.12 kg/ha. The procedure, abridged: (§1)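 Readout: % inhibition per species, observed ~10-14 d after seeding and treatment. Treatment: known amount of active in acetone or water onto seed bed, covered with untreated soil; greenhouse, watered from below.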

In assay [2] the test system is Cocklebur. Briefly: Pre-emergence herbicide test. Particulars: Xanthium strumarium, read-out: % plant inhibition (Cobu); for inhibition at 1120 g/ha: 1.12 kg/ha. In short, it runs like this: as §1
In assay [3] the test system is Velvetleaf. Kind of assay: Pre-emergence herbicide test. Particulars: Abutilon theophrasti, read-out: % plant inhibition (Vele); for inhibition at 1120 g/ha: 1.12 kg/ha. In short, it runs like this: as §1
Assay [4] concerns Seedling johnsongrass. Briefly: Pre-emergence herbicide test. The following applies: Sorghum halepense, read-out: % plant inhibition (Sejg); for inhibition at 1120 g/ha: 1.12 kg/ha. The procedure, abridged: as §1
Assay [5] deals with Annual bluegrass. Kind of assay: Pre-emergence herbicide test. Particulars: read-out: % plant inhibition (Anbg); for inhibition at 1120 g/ha: 1.12 kg/ha. In short, it runs like this: as §1
The subject of assay [6] is Downy Brome. Kind of assay: Pre-emergence herbicide test. Particulars: Bromus tectorum, read-out: % plant inhibition (Dobr); for inhibition at 1120 g/ha: 1.12 kg/ha. In short, it runs like this: as §1
Assay [7] deals with Wild buckwheat. Kind of assay: Pre-emergence herbicide test. Particulars: Fallopia convolvulus, read-out: % plant inhibition (Wibw); for inhibition at 1120 g/ha: 1.12 kg/ha. In short, it runs like this: as §1
In assay [8] the test system is Morningglory. Kind of assay: Pre-emergence herbicide test. Particulars: Ipomoea, read-out: % plant inhibition (Mogl); for inhibition at 1120 g/ha: 1.12 kg/ha. The procedure, abridged:
as §1

The subject of assay [9] is Yellow nutsedge. Briefly: Pre-emergence herbicide test. Particulars: Cyperus, read-out: % plant inhibition (Yens); for inhibition at 1120 g/ha: 1.12 kg/ha. The procedure, abridged: as §1
Assay [10] concerns Barnyardgrass. Kind of assay: Pre-emergence herbicide test. Particulars: Echinochloa crus-galli, read-out: % plant inhibition (Bygr); for inhibition at 1120 g/ha: 1.12 kg/ha. In short, it runs like this: as §1
Assay [11] deals with Indian Mustard. Briefly: Post-emergence herbicide test. Particulars: Brassica juncea, read-out: % plant inhibition (Inmu); for inhibition at 1120 g/ha: 1.12 kg/ha. The procedure, abridged: (§2)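 Emerged annual and perennial plants (2–3 weeks) are sprayed with test compound in a carrier with ~0.4% emulsifier, 1870 L/Ha total volume, atomizer pressure 10 psig. Effects are expressed as % inhibition versus control at approximately 10–14 days and occasionally 24–28 days.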

The subject of assay [12] is Cocklebur. Kind of assay: Post-emergence herbicide test. The following applies: Xanthium strumarium, read-out: % plant inhibition (Cobu); for inhibition at 1120 g/ha: 1.12 kg/ha. In short, it runs like this:
as §2

In assay [13] the test system is Velvetleaf. Briefly: Post-emergence herbicide test. The following applies: Abutilon theophrasti, read-out: % plant inhibition (Vele); for inhibition at 1120 g/ha: 1.12 kg/ha. In short, it runs like this:
as §2

Assay [14] has as its system Seedling johnsongrass. Kind of assay: Post-emergence herbicide test. The following applies: Sorghum halepense, read-out: % plant inhibition (Sejg); for inhibition at 1120 g/ha: 1.12 kg/ha. In short, it runs like this:
as §2

Assay [15] has as its system Annual bluegrass. Kind of assay: Post-emergence herbicide test. Particulars: read-out: % plant inhibition (Anbg); for inhibition at 1120 g/ha: 1.12 kg/ha. In short, it runs like this: as §2
Assay [16] deals with Downy Brome. Kind of assay: Post-emergence herbicide test. The following applies: Bromus tectorum, read-out: % plant inhibition (Dobr); for inhibition at 1120 g/ha: 1.12 kg/ha. In short, it runs like this: as §2
In assay [17] the test system is Wild buckwheat. Briefly: Post-emergence herbicide test. Particulars: Fallopia convolvulus, read-out: % plant inhibition (Wibw); for inhibition at 1120 g/ha: 1.12 kg/ha. In short, it runs like this: as §2
Assay [18] has as its system Morningglory. Briefly: Post-emergence herbicide test. Particulars: Ipomoea, read-out: % plant inhibition (Mogl); for inhibition at 1120 g/ha: 1.12 kg/ha. In short, it runs like this: as §2
The test system of assay [19] is Yellow nutsedge. Kind of assay: Post-emergence herbicide test. The following applies: Cyperus, read-out: % plant inhibition (Yens); for inhibition at 1120 g/ha: 1.12 kg/ha. The procedure, abridged:
as §2

Assay [20] concerns Barnyardgrass. Briefly: Post-emergence herbicide test. Particulars: Echinochloa crus-galli, read-out: % plant inhibition (Bygr); for inhibition at 1120 g/ha: 1.12 kg/ha. The procedure, abridged:
as §2

Consider `CCOC(=O)CON=C(C)c1cc(-c2nn(C)c(C(F)(F)F)c2Cl)c(F)cc1Cl` [Compound 104], for which the inhibition at 1120 g/ha in the assay with Indian Mustard [1] was 80%; in the assay on Cocklebur [2] it was 20%; with Velvetleaf [3], 90%; in the assay with Seedling johnsongrass [4], 80%; in the assay on Annual bluegrass [5], 20%; in the assay with Downy Brome [6], 80%. Besides, the inhibition at 1120 g/ha with Wild buckwheat [7] worked out at 70%; with Morningglory [8] it was 80%; in the assay with Yellow nutsedge [9] it was 0%; with Barnyardgrass [10] it was 10%; in the assay with Indian Mustard [11] it was 40%; in the assay with Cocklebur [12], 70%. Besides, the inhibition at 1120 g/ha was 100% in the assay with Velvetleaf [13]; 80% in the assay on Seedling johnsongrass [14]; 30% with Annual bluegrass [15]; 40% with Downy Brome [16]; 100% with Wild buckwheat [17]; 100% in the assay on Morningglory [18]. Further, the inhibition at 1120 g/ha in the assay on Yellow nutsedge [19] is 20%; in the assay with Barnyardgrass [20] it was 50%.

Take `C#CCOc1cc(-c2nn(C)c(C(F)(F)F)c2Cl)c(F)cc1Br` [Compound 96]: the inhibition at 1120 g/ha in the assay on Indian Mustard [1] was found to be 100%; in the assay on Cocklebur [2], 60%; with Velvetleaf [3], 100%; with Seedling johnsongrass [4] it was 90%; in the assay with Annual bluegrass [5] it was 100%; in the assay on Downy Brome [6], 100%. The inhibition at 1120 g/ha was 100% in the assay with Wild buckwheat [7]; 100% with Morningglory [8]; 20% in the assay on Yellow nutsedge [9]; 80% with Barnyardgrass [10]; 100% in the assay with Indian Mustard [11]; 90% with Cocklebur [12]. Moreover, the inhibition at 1120 g/ha in the assay with Velvetleaf [13], with Seedling johnsongrass [14], in the assay on Annual bluegrass [15], in the assay with Downy Brome [16], with Wild buckwheat [17] and in the assay on Morningglory [18] was 100% in each case. In addition, the inhibition at 1120 g/ha with Yellow nutsedge [19] came out at 40%; with Barnyardgrass [20], 100%.

As for `Cn1nc(-c2cc(N)c(Cl)cc2F)c(Cl)c1C(F)F` [Compound 178], the inhibition at 1120 g/ha in the assay with Indian Mustard [1] is 90%; with Cocklebur [2], 20%; in the assay with Velvetleaf [3] it was 100%; in the assay with Seedling johnsongrass [4], 10%; in the assay with Annual bluegrass [5] it was 20%; in the assay with Downy Brome [6], 30%. The inhibition at 1120 g/ha amounted to 100% in the assay on Wild buckwheat [7]; 50% in the assay on Morningglory [8]; 0% in the assay on Yellow nutsedge [9]; 10% in the assay with Barnyardgrass [10]; 70% in the assay on Indian Mustard [11]; 90% in the assay with Cocklebur [12]. For the same compound, the inhibition at 1120 g/ha in the assay on Velvetleaf [13] turned out to be 100%; with Seedling johnsongrass [14], 70%; in the assay on Annual bluegrass [15], 90%; in the assay with Downy Brome [16], 90%; in the assay with Wild buckwheat [17], 100%; in the assay on Morningglory [18], 100%. The inhibition at 1120 g/ha stood at 0% with Yellow nutsedge [19] and 70% in the assay with Barnyardgrass [20].

Consider `CCOC(=O)C(C)Oc1cc(-c2nn(C)c(C(F)(F)F)c2Cl)c(F)cc1Br` (centres unmarked) [Compound 97], for which the inhibition at 1120 g/ha was 90% with Indian Mustard [1]; 90% in the assay on Cocklebur [2]; 100% in the assay with Velvetleaf [3]; 50% in the assay with Seedling johnsongrass [4]; 80% with Annual bluegrass [5]; 80% in the assay with Downy Brome [6]. Also, the inhibition at 1120 g/ha in the assay on Wild buckwheat [7] turned out to be 100%; with Morningglory [8], 40%; in the assay on Yellow nutsedge [9], 20%; in the assay with Barnyardgrass [10], 50%; in the assay on Indian Mustard [11], 100%; in the assay on Cocklebur [12], 100%. In addition, the inhibition at 1120 g/ha in the assay on Velvetleaf [13] is 100%; in the assay with Seedling johnsongrass [14], 60%; in the assay with Annual bluegrass [15] it was 70%; in the assay with Downy Brome [16], 90%; with Wild buckwheat [17] it was 100%; in the assay on Morningglory [18], 90%. For the same compound, the figures for the inhibition at 1120 g/ha in the assay with Yellow nutsedge [19] and with Barnyardgrass [20] were 50% and 100%, respectively.

With `Cn1nc(-c2cc(CC(N)=O)c(Cl)cc2F)c(Cl)c1C(F)(F)F` [Compound 112], the inhibition at 11210 g/ha in the assay with Indian Mustard [1] (11.21 kg/ha) was found to be 100%; in the assay on Cocklebur [2] (11.21 kg/ha), 40%; in the assay on Velvetleaf [3] (11.21 kg/ha), 100%; with Seedling johnsongrass [4] (11.21 kg/ha), 90%; with Annual bluegrass [5] (11.21 kg/ha), 100%; with Downy Brome [6] (11.21 kg/ha), 20%. Moreover, the inhibition at 11210 g/ha in the assay with Wild buckwheat [7] (11.21 kg/ha) amounted to 90%; in the assay on Morningglory [8] (11.21 kg/ha) it was 100%; in the assay on Yellow nutsedge [9] (11.21 kg/ha), 80%; in the assay with Barnyardgrass [10] (11.21 kg/ha), 100%; in the assay on Indian Mustard [11] (11.21 kg/ha), 40%; in the assay with Cocklebur [12] (11.21 kg/ha), 60%. For the same compound, the inhibition at 11210 g/ha in the assay on Velvetleaf [13] (11.21 kg/ha) came out at 100%; in the assay on Seedling johnsongrass [14] (11.21 kg/ha), 30%; in the assay with Annual bluegrass [15] (11.21 kg/ha) it was 30%; with Downy Brome [16] (11.21 kg/ha), 0%; in the assay with Wild buckwheat [17] (11.21 kg/ha) it was 70%; in the assay on Morningglory [18] (11.21 kg/ha), 80%. Also, the values for the inhibition at 11210 g/ha in the assay with Yellow nutsedge [19] (11.21 kg/ha) and in the assay on Barnyardgrass [20] (11.21 kg/ha) were 40% and 60%, respectively.

In the case of `Cn1nc(-c2cc(C3=NCCO3)c(Cl)cc2F)c(Cl)c1C(F)(F)F` [Compound 98], the inhibition at 1120 g/ha with Indian Mustard [1] was determined as 70%; in the assay with Cocklebur [2], 20%; with Velvetleaf [3] it was 90%; in the assay on Seedling johnsongrass [4], 70%; with Annual bluegrass [5] it was 0%; with Downy Brome [6], 60%. In addition, the inhibition at 1120 g/ha was determined as 60% in the assay with Wild buckwheat [7]; 80% with Morningglory [8]; 0% in the assay on Yellow nutsedge [9]; 30% with Barnyardgrass [10]; 80% in the assay with Indian Mustard [11]; 100% in the assay on Cocklebur [12]. Also, the inhibition at 1120 g/ha is 100% with Velvetleaf [13]; 90% with Seedling johnsongrass [14]; 70% in the assay with Annual bluegrass [15]; 90% in the assay on Downy Brome [16]; 50% in the assay with Wild buckwheat [17]; 100% with Morningglory [18]. Also, the inhibition at 1120 g/ha with Yellow nutsedge [19] is 0%; in the assay with Barnyardgrass [20], 80%.

With `COCOc1cc(-c2nn(C)c(C(F)(F)F)c2Cl)c(F)cc1Cl` [Compound 308, 4-Chloro-3-(4-chloro-2-fluoro-5-(methoxy-methoxy)phenyl)-1-methyl-5-(trifluoromethyl)-1H-pyrazole], the inhibition at 1120 g/ha in the assay on Indian Mustard [1] stood at 100%; with Cocklebur [2], 80%; in the assay on Velvetleaf [3], 100%; in the assay on Seedling johnsongrass [4] it was 100%; in the assay on Annual bluegrass [5], 100%; in the assay on Downy Brome [6], 100%. Also, the inhibition at 1120 g/ha with Wild buckwheat [7] worked out at 100%; in the assay with Morningglory [8], 100%; in the assay on Yellow nutsedge [9], 40%; in the assay on Barnyardgrass [10], 100%; with Indian Mustard [11], 90%; in the assay on Cocklebur [12], 90%. Moreover, the inhibition at 1120 g/ha came to 100% in the assay on Velvetleaf [13]; 100% in the assay on Seedling johnsongrass [14]; 100% with Annual bluegrass [15]; 100% in the assay on Downy Brome [16]; 100% in the assay with Wild buckwheat [17]; 90% with Morningglory [18]. In addition, the results for the inhibition at 1120 g/ha in the assay on Yellow nutsedge [19] and in the assay on Barnyardgrass [20] were 20% and 100%, respectively.
